# Test results: patent US9149475B2, “Protein kinase C inhibitors and uses thereof” (Rigel Pharmaceuticals, Inc., priority 2009, dated 2015)
# System: Human primary T cells
# Assay: IL-2 ELISA, human primary T cell, anti-CD3+CD28+ (whole cell assay)
# Assay type: cell-based
# Conditions: Homo sapiens, T-cell, 24 h, human primary T cells stimulated with anti-CD3 + anti-CD28, 24 hours
# In short: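 PBMC-derived T cells, pre-expanded on αCD3/αCD28 with IL-2 and then washed free of IL-2, were preincubated with compound for 1 hr at 37° C (100,000 cells/well). They were then stimulated on 1 μg/ml αCD3 plus 5 μg/ml αCD28 for 24 h, and supernatant IL-2 was measured by ELISA. The counter-assay used 0.5 ng/ml PMA plus 0.1 μM ionomycin instead.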
row,Structure (SMILES),IC50 [nM]
1,"CC1(C)CC(Nc2nc(Nc3ccc(OC4CCOCC4)c(F)c3)ncc2F)CC(C)(C)N1 [III-109, 5-fluoro-N2-(3-fluoro-4-(tetrahydro-2H-pyran-4-yloxy)phenyl)-N4-(2,2,6,6-tetramethylpiperidin-4-yl)pyrimidine-2,4-diamine]",500 to 1000
2,"[2H]C([2H])([2H])N1C(C)(C)CC(Nc2nc(Nc3ccc(OC4CCN(C(C)C)CC4)c(OC(F)F)c3)ncc2F)CC1(C)C [III-110, N2-(3-(difluoromethoxy)-4-(1-isopropylpiperidin-4-yloxy)phenyl)-5-fluoro-N4-(1-trideuteromethyl-2,2,6,6-tetramethylpiperidin-4-yl)pyrimidine-2,4-diamine]",< 250
3,"[2H]C([2H])([2H])N1C(C)(C)CC(Nc2nc(Nc3ccc(OC4CCN(C(C)C)CC4)c(Cl)c3)ncc2F)CC1(C)C [III-111, N2-(3-(chloro)-4-(1-isopropylpiperidin-4-yloxy)phenyl)-5-fluoro-N4-(1-trideuteromethyl-2,2,6,6-tetramethylpiperidin-4-yl)pyrimidine-2,4-diamine]",< 250
4,"[2H]C([2H])([2H])N1C(C)(C)CC(Nc2nc(Nc3ccc(OC4CCN(C(C)C)CC4F)c(OC(F)F)c3)ncc2F)CC1(C)C (stereo not drawn) [III-112, N2-(3-(difluoromethoxy)-4-(3-fluoro-1-isopropylpiperidin-4-yloxy)phenyl)-5-fluoro-N4-(1-trideuteromethyl-2,2,6,6-tetramethylpiperidin-4-yl)pyrimidine-2,4-diamine]",250 to 500
5,"[2H]C([2H])([2H])N1C(C)(C)CC(Nc2nc(Nc3ccc(C)c(-n4cnnn4)c3)ncc2F)CC1(C)C [III-113, 5-fluoro-N2-(4-methyl-3-(1H-tetrazol-1-yl)phenyl)-N4-(1-trideuteromethyl-2,2,6,6-tetramethylpiperidin-4-yl)pyrimidine-2,4-diamine]",< 250
6,"[2H]C([2H])([2H])N1C(C)(C)CC(Nc2nc(Nc3cccc(-n4cnnn4)c3)ncc2F)CC1(C)C [III-114, 5-fluoro-N2-(3-(1H-tetrazol-1-yl)phenyl)-N4-(1-trideuteromethyl-2,2,6,6-tetramethylpiperidin-4-yl)pyrimidine-2,4-diamine]",< 250
7,"[2H]C([2H])([2H])N1C(C)(C)CC(Nc2nc(Nc3cccc(-n4nnnc4C)c3)ncc2F)CC1(C)C [III-115, 5-fluoro-N2-(3-(5-methyl-1H-tetrazol-1-yl)phenyl)-N4-(1-trideuteromethyl-2,2,6,6-tetramethylpiperidin-4-yl)pyrimidine-2,4-diamine]",< 250
8,"CC1(C)CC(Nc2nc(Nc3cc(C4CC4)cc(-n4cnnn4)c3)ncc2F)CC(C)(C)N1 [III-116, N^2-(3-cyclopropyl-5-(1H-tetrazol-1-yl)phenyl)-5-fluoro-N^4(2,2,6,6-tetramethylpiperidin-4-yl)pyrimidine-2,4-diamine]",< 250
9,"CN1C(C)(C)CC(Nc2nc(Nc3cc(C4CC4)cc(-n4cnnn4)c3)ncc2F)CC1(C)C [III-117, N^2-(3-cyclopropyl-5-(1H-tetrazol-1-yl)phenyl)-5-fluoro-N^4(1,2,2,6,6-pentamethylpiperidin-4-yl)pyrimidine-2,4-diamine]",< 250
10,"CC1(C)CC(Nc2nc(Nc3ccc(C4CC4)c(-n4cnnn4)c3)ncc2F)CC(C)(C)N1 [III-118, N^2-(4-cyclopropyl-3-(1H-tetrazol-1-yl)phenyl)-5-fluoro-N^4(2,2,6,6-tetramethylpiperidin-4-yl)pyrimidine-2,4-diamine]",< 250
11,"CN1C(C)(C)CC(Nc2nc(Nc3ccc(C4CC4)c(-n4cnnn4)c3)ncc2F)CC1(C)C [III-119, N^2-(4-cyclopropyl-3-(1H-tetrazol-1-yl)phenyl)-5-fluoro-N^4(1,2,2,6,6-pentamethylpiperidin-4-yl)pyrimidine-2,4-diamine]",< 250
12,"Cn1nnnc1-c1cc(Nc2ncc(F)c(NC3CC(C)(C)NC(C)(C)C3)n2)ccc1F [III-120, 5-fluoro-N2-(4-fluoro-3-(1-methyl-1H-tetrazol-5-yl)phenyl)-N4-(2,2,6,6-tetramethylpiperidin-4-yl)pyrimidine-2,4-diamine]",500 to 1000
13,"CN1C(C)(C)CC(Nc2nc(Nc3ccc(F)c(-c4nnnn4C)c3)ncc2F)CC1(C)C [III-121, 5-fluoro-N2-(4-fluoro-3-(1-methyl-1H-tetrazol-5-yl)phenyl)-N4-(1,2,2,6,6-pentamethylpiperidin-4-yl)pyrimidine-2,4-diamine]",< 250
14,"CC(C)Oc1ccc(Nc2ncc(F)c(NC3CC(C)(C)NC(C)(C)C3)n2)cc1-c1nnnn1C [III-122, 5-fluoro-N2-(4-isopropoxy-3-(1-methyl-1H-tetrazol-5-yl)phenyl)-N4-(2,2,6,6-tetramethylpiperidin-4-yl)pyrimidine-2,4-diamine]",< 250
15,"CC(C)Oc1ccc(Nc2ncc(F)c(NC3CC(C)(C)N(C)C(C)(C)C3)n2)cc1-c1nnnn1C [III-123, 5-fluoro-N2-(4-isopropoxy-3-(1-methyl-1H-tetrazol-5-yl)phenyl)-N4-(1,2,2,6,6-pentamethylpiperidin-4-yl)pyrimidine-2,4-diamine]",< 250
16,"Cn1nnnc1-c1cc(Nc2ncc(F)c(NC3CC(C)(C)NC(C)(C)C3)n2)ccc1OC1CCOCC1 [III-124, 5-fluoro-N2-(3-(1-methyl-1H-tetrazol-5-yl)-4-(tetrahydro-2H-pyran-4-yloxy)phenyl)-N4-(2,2,6,6-tetramethylpiperidin-4-yl)pyrimidine-2,4-diamine]",> 1000
17,"CN1C(C)(C)CC(Nc2nc(Nc3ccc(OC4CCOCC4)c(-c4nnnn4C)c3)ncc2F)CC1(C)C [III-125, 5-fluoro-N2-(3-(1-methyl-1H-tetrazol-5-yl)-4-(tetrahydro-2H-pyran-4-yloxy)phenyl)-N4-(1,2,2,6,6-pentamethylpiperidin-4-yl)pyrimidine-2,4-diamine]",250 to 500
18,"Cn1nnnc1-c1cc(Nc2ncc(F)c(NC3CC(C)(C)NC(C)(C)C3)n2)ccc1OC1COC1 [III-126, 5-fluoro-N2-(3-(1-methyl-1H-tetrazol-5-yl)-4-(oxetan-3-yloxy)phenyl)-N4-(2,2,6,6-tetramethylpiperidin-4-yl)pyrimidine-2,4-diamine]",> 1000
19,"CN1C(C)(C)CC(Nc2nc(Nc3ccc(OC4COC4)c(-c4nnnn4C)c3)ncc2F)CC1(C)C [III-127, 5-fluoro-N2-(3-(1-methyl-1H-tetrazol-5-yl)-4-(oxetan-3-yloxy)phenyl)-N4-(1,2,2,6,6-pentamethylpiperidin-4-yl)pyrimidine-2,4-diamine]",< 250
20,"COCCn1nnnc1-c1cc(Nc2ncc(F)c(NC3CC(C)(C)N(C)C(C)(C)C3)n2)ccc1F [III-128, 5-fluoro-N2-(4-fluoro-3-(1-(2-methoxyethyl)-1H-tetrazol-5-yl)phenyl)-N4-(1,2,2,6,6-pentamethylpiperidin-4-yl)pyrimidine-2,4-diamine]",250 to 500
21,"COCCn1nnnc1-c1cc(Nc2ncc(F)c(NC3CC(C)(C)NC(C)(C)C3)n2)ccc1F [III-129, 5-fluoro-N2-(4-fluoro-3-(1-(2-methoxyethyl)-1H-tetrazol-5-yl)phenyl)-N4-(2,2,6,6-tetramethylpiperidin-4-yl)pyrimidine-2,4-diamine]",> 1000
22,"Cn1nnnc1-c1cc(Nc2ncc(F)c(NC3CC(C)(C)NC(C)(C)C3)n2)ccc1Cl [III-130, N2-(4-chloro-3-(1-methyl-1H-tetrazol-5-yl)phenyl)-5-fluoro-N4-(2,2,6,6-tetramethylpiperidin-4-yl)pyrimidine-2,4-diamine]",< 250
23,"CN1C(C)(C)CC(Nc2nc(Nc3ccc(Cl)c(-c4nnnn4C)c3)ncc2F)CC1(C)C [III-131, N2-(4-chloro-3-(1-methyl-1H-tetrazol-5-yl)phenyl)-5-fluoro-N4-(1,2,2,6,6-pentamethylpiperidin-4-yl)pyrimidine-2,4-diamine]",< 250
24,"Cc1cc(Nc2ncc(F)c(NC3CC(C)(C)NC(C)(C)C3)n2)cc(-c2nnnn2C)c1 [III-132, 5-fluoro-N2-(3-methyl-5-(1-methyl-1H-tetrazol-5-yl)phenyl)-N4-(2,2,6,6-tetramethylpiperidin-4-yl)pyrimidine-2,4-diamine]",250 to 500
25,"Cc1cc(Nc2ncc(F)c(NC3CC(C)(C)N(C)C(C)(C)C3)n2)cc(-c2nnnn2C)c1 [III-133, 5-fluoro-N2-(3-methyl-5-(1-methyl-1H-tetrazol-5-yl)phenyl)-N4-(1,2,2,6,6-pentamethylpiperidin-4-yl)pyrimidine-2,4-diamine]",< 250
26,"Cn1nnnc1-c1cc(Cl)cc(Nc2ncc(F)c(NC3CC(C)(C)NC(C)(C)C3)n2)c1 [III-134, N2-(3-chloro-5-(1-methyl-1H-tetrazol-5-yl)phenyl)-5-fluoro-N4-(2,2,6,6-tetramethylpiperidin-4-yl)pyrimidine-2,4-diamine]",< 250
27,"CN1C(C)(C)CC(Nc2nc(Nc3cc(Cl)cc(-c4nnnn4C)c3)ncc2F)CC1(C)C [III-135, N2-(3-chloro-5-(1-methyl-1H-tetrazol-5-yl)phenyl)-5-fluoro-N4-(1,2,2,6,6-pentamethylpiperidin-4-yl)pyrimidine-2,4-diamine]",< 250
28,"Cn1nnnc1-c1cc(Nc2ncc(F)c(NC3CC(C)(C)NC(C)(C)C3)n2)cc(F)c1F [III-136, N2-(3,4-difluoro-5-(1-methyl-1H-tetrazol-5-yl)phenyl)-5-fluoro-N4-(2,2,6,6-tetramethylpiperidin-4-yl)pyrimidine-2,4-diamine]",250 to 500
29,"CN1C(C)(C)CC(Nc2nc(Nc3cc(F)c(F)c(-c4nnnn4C)c3)ncc2F)CC1(C)C [III-137, N2-(3,4-difluoro-5-(1-methyl-1H-tetrazol-5-yl)phenyl)-5-fluoro-N4-(1,2,2,6,6-pentamethylpiperidin-4-yl)pyrimidine-2,4-diamine]",< 250
30,"Cn1nnnc1-c1cc(F)cc(Nc2ncc(F)c(NC3CC(C)(C)NC(C)(C)C3)n2)c1 [III-138, 5-fluoro-N2-(3-fluoro-5-(1-methyl-1H-tetrazol-5-yl)phenyl)-N4-(2,2,6,6-tetramethylpiperidin-4-yl)pyrimidine-2,4-diamine]",500 to 1000
